The results in this text go back to patent publication US20110076686A1 (priority 2008, published 2011).

In this experiment the test system is Legionella pneumophila. It counts as cell-based. The conditions noted are these: DVC step.
On to `O=C(O)c1cn(C2CC2)c2cc(N3CCNCC3)c(F)cc2c1=O` [ciprofloxacin, Ciprofloxacin], for which the “effectiveness as DNA gyrase inhibitor / cellular proliferation inhibitor” value is on record as “very effective DNA gyrase inhibitors”; the “elongation of Legionella pneumophila cells and blocking of division” value was “allow the Legionella pneumophila cells to elongate in preparation for cell division but actually block these elongated cells from dividing”.
On the same counts, the results for `CCn1cc(C(=O)O)c(=O)c2ccc(C)nc21` [nalidixic acid] are “not a reliably effective DNA gyrase inhibitor” and “does not provide sufficient elongation”.
The matching figures for `CC1=C(C(=O)O)N2C(=O)[C@@H](NC(=O)[C@H](N)c3ccccc3)[C@H]2SC1` [cephalexin]: “very effective DNA gyrase inhibitors” and “allow the Legionella pneumophila cells to elongate in preparation for cell division but actually block these elongated cells from dividing”.
